Measured values taken from patent publication US7855211B2, “Protein kinase inhibitors” (Eli Lilly and Company, priority 2008, dated 2010).
pIC50: −log10 of the molar value.

Tests used:
[1] = test system: U87 MG subcutaneous xenografts; assay: U87 MG subcutaneous xenograft, combination study with temozolomide; format: in vivo, human; settings: 3 mpk, IP, q7dx2
Protocol: (§1) Test compound is prepared in an appropriate vehicle (1% hydroxyethyl cellulose, in 25 mM phosphate buffer pH 2) and is administered by oral gavage daily (at 25, 50 or 100 mg/kg (mpk)) for 21 days when tumours are established (11-29 days after implant). Tumour response is determined by tumour volume measurement performed twice a week during the course of treatment.
(§2) The statistical method for assessing Tumour Growth Delay (TGD-Individual interpolation method) is as follows: For each animal, the time to reach a specified tumour volume (threshold) is calculated by interpolating between the last measurement before reaching the threshold and the next measurement. The interpolation is linear using log10(volume) vs. time. If an animal never reaches the threshold, its crossing time is reported at “>T” where T is the last day measured for that animal. These crossing times are analyzed as “time-to-event” data with right-censoring using a Weibull distribution. A mean and standard deviation are determined for each treatment group. Tumour growth delay (TGD) is the difference in mean crossing time between a treated group and the vehicle control group. T-tests are performed using the means and standard deviations from the Weibull analysis. Body weight is taken as a general measurement of toxicity.
U87 MG subcutaneous xenografts are grown and measured as previously described. The compound of Example 16 is formulated and administered as previously described and dosed orally once a day from days 11-31. Temozolomide (Schering Corporation) is formulated in 1% w/v hydroxyethylcellulose/0.25% v/v polysorbate 80 in purified water and administered by interperitoneal injection on days 11 and 18. A comparison of the single agent activity of temozolomide with a combination treatment with the compound of Example 16 is shown in Table 7. Tumor growth is analyzed by 2-way interaction analysis; log-transformed tumor volumes were analyzed with a repeated measures analysis of variance (ANOVA) using a spatial power correlation model in SAS, version 9.1 (Cary, N.C.). […]

[2] = test system: U87 MG orthotopic brain xenografts; assay: U87 MG orthotopic brain xenograft, combination study with temozolomide; settings: TMZ IP 3 mg/kg (days 6 and 13)
Protocol: In vivo brain tumour model: Male NIH-RNU rats weighing between 225 and 300 g are anesthetized with isoflurane and placed into a stereotaxic frame (David Kopf Instruments, Tujunga, Calif.). A mid-line incision is made and a 1 mm burr hole drilled 2 mm lateral from the midline and 3 mm anterior to the coronal suture. A cell suspension of 5×10^5 U87 MG human glioblastoma tumour cells (grown in Eagle's MEM with Earle Salts, L-glutamine and non essential amino acids, 1 mM Na pyruvate and 10% FBS) in 10 μL (5×10^5 cells for qd dosing and 1×10^6 for q2d dosing) is injected at a depth of 3 mm by means of a 25 or 50 μl Hamilton syringe over a period of approximately 2 min using a stereotaxic-mounted syringe pump (Nano-Injector, model #53310 and Stereotaxic Adapter Clamp, part #51681, Stoelting Co, Wood Dale, Ill.) with the syringe left in place for an additional 1 min to prevent backflow and the syringe is slowly withdrawn. […]
The primary outcome variable is survival. Animals are monitored daily until death and, in consultation with the veterinary staff and in adherence with the policy on tumour implantation, euthanized if the animal becomes moribund. […] Survival data are analyzed by the Kaplan-Meier method for median survival analysis using JMP ν6.0.2 (SAS Institute).

[3] = target: T1, CDK6 (Homo sapiens, UniProt Q00534); assay: CDK6 Inhibition Assay; format: biochemical; settings: CDK6 kinase, 33P-ATP, CTRF substrate
T1 construct: purchased Proqinase 7533
T1 sequence (Q00534 whole entry): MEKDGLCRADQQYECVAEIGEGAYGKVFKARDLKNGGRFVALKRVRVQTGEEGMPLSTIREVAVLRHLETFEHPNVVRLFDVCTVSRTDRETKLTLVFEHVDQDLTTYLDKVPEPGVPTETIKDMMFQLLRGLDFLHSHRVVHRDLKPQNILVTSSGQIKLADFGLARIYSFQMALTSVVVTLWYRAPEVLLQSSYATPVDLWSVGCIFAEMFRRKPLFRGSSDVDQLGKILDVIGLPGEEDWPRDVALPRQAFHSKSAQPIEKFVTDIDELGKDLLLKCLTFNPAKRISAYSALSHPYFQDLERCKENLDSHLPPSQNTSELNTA
T1 sequence (P24385 whole entry partner): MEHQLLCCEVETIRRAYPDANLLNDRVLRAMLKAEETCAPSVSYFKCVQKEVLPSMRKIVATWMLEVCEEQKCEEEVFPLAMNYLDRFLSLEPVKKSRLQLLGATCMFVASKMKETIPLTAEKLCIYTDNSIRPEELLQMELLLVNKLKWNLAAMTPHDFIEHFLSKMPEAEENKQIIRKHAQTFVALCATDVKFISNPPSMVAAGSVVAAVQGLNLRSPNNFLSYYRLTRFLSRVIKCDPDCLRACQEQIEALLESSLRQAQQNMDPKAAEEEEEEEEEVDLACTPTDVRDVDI
Protocol: 10 μL of test compound in 20% DMSO, 20 μL of ATP and CTRF (Upstate cat # 12-439) solution, and 10 μL of enzyme solution are mixed in a 96 well plate. The ATP and CRTF solution is prepared to give a final concentration of 100 μM ATP, 0.5 μCi [^33P]-ATP and 0.8 μM CTRF diluted in kinase buffer of 68 mM HEPES pH 7.4, 6.72 mM MgCl2, 2.64 mM DTT, and 0.004% TRITON™ X-100. The enzyme solution is prepared for a final concentration of 1.7 ng/μL CDK6 enzyme (Proqinase cat # 7533) diluted in the kinase buffer described above in the CDK4 inhibition assay. Test compounds are serially diluted 1:3 in 20% DMSO to create a 10 point curve at a starting concentration of 20 μM. 20% DMSO buffer alone without added test compound is employed as a control, 500 mM EDTA is used to determine the level of background ^33P in the absence of enzyme activity. Reagents are mixed and incubated for 90 min at 20° C. The reaction is terminated by the addition of 80 μL 10% (v/v) H3PO4 and precipitation of material onto glass fiber filter plates (Millipore, MAFC N0B 50). The wells are washed four times with 0.5% H3PO4 and the radioactivity incorporated is determined with a microplate scintillation counter (Microbeta Trilux, Wallac).
The data is analyzed in the same manner as for CDK4. Preferred exemplified compounds display an IC50 of <30 nM in the above assay. […]

[4] = test system: Calu-6 (lung) subcutaneous xenografts; assay: Calu-6 (lung) subcutaneous xenograft, combination study with gemcitabine; format: in vivo, human; settings: 60 mpk, IP, q3dx7
Protocol: as §1, §2
Calu-6 (lung) subcutaneous xenografts are grown and measured as previously described. Gemcitabine was formulated in saline (0.9% sodium chloride in purified water) and administered via intraperitoneal injection q3dx7. Test compound was administered qdx21. A comparison of the single agent activity of gemcitabine with combination treatments containing both gemcitabine and the compound of Example 16 are shown in Table 10. Tumour growth is analyzed by 2-way interaction analysis.

Cn1nnc2c(C(N)=O)ncn2c1=O [Temozolomide]
Dead/total animals [1]: 0/8
Maximum body weight loss (%) [1]: −1%
Tumor volume (mg) at end of dosing period (day 31) [1]: 101.88 mg
Mean Survival [2]: 46.9 days
Median Survival [2]: 47 days

Cc1nc2c(F)cc(-c3nc(Nc4ccc(CN5CCN(C(C)C)CC5)cn4)ncc3F)cc2n1C(C)C [Example 19, [5-Fluoro-4-(7-fluoro-3-isopropyl-2-methyl-3H-benzoimidazol-5-yl)-pyrimidin-2-yl]-[5-(4-isopropyl-piperazin-1-ylmethyl)-pyridin-2-yl]-amine methanesulfonate]
pIC50 [3]: 8.30

Cl.Nc1ccn([C@@H]2O[C@H](CO)[C@@H](O)C2(F)F)c(=O)n1 (single isomer, unassigned) [Gemcitabine, 2′-deoxy-2′,2′-difluorocytidine monohydrochloride (β-isomer)]
Dead/total animals [4]: 0/7
Maximum body weight loss (%) [4]: −12%
Tumor volume (mg) at end of dosing period (day 38) [4]: 509.18 mg
